Results reported in publication PMC5889476 (Biochimie Open, 2015).

Tests used:
rFKBP22 (E. coli FKBP22) [1] = target: T1, rFKBP22 (E. coli FKBP22) (Escherichia coli, UniProt P0A9L3, I65P); assay: tryptophan fluorescence quenching titration; assay type: binding
T1 sequence (P0A9L3 1-206 I65P): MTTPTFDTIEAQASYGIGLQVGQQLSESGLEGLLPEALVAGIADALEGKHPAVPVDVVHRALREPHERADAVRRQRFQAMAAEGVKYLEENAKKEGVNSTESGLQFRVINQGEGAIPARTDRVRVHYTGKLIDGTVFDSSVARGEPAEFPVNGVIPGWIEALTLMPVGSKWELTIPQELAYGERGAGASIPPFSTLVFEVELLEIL

rFKBP22 (E. coli FKBP22) [2] = target: T2, rFKBP22 (E. coli FKBP22) (Escherichia coli, UniProt P0A9L3, V72P); assay: tryptophan fluorescence quenching titration; assay type: binding
T2 sequence (P0A9L3 1-206 V72P): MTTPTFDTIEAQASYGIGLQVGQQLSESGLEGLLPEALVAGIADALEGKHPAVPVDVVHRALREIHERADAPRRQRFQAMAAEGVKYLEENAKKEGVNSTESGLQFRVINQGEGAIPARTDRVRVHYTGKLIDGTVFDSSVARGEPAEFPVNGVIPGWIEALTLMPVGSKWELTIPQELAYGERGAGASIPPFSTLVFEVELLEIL

rFKBP22 (E. coli FKBP22) [3] = target: T3, rFKBP22 (E. coli FKBP22) (Escherichia coli, UniProt P0A9L3); assay: tryptophan fluorescence quenching titration; assay type: binding
T3 sequence (P0A9L3 1-206): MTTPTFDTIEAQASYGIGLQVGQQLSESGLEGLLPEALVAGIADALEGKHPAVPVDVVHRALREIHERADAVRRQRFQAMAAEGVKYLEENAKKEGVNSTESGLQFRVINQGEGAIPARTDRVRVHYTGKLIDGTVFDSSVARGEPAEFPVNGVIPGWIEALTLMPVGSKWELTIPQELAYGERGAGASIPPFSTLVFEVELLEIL

rFKBP22 (E. coli FKBP22) [4] = target: T4, rFKBP22 (E. coli FKBP22) (Escherichia coli, UniProt P0A9L3, A82P); assay: tryptophan fluorescence quenching titration; assay type: binding
T4 sequence (P0A9L3 1-206 A82P): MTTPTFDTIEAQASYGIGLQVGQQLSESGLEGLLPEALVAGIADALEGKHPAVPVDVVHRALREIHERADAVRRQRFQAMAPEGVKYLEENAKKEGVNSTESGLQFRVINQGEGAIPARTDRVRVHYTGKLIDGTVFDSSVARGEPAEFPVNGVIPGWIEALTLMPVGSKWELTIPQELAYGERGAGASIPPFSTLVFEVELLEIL

cross-linking = target: the molecule itself; assay: cross-linking

Molecule	Kd (rFKBP22 (E. coli FKBP22) [1])	Kd (rFKBP22 (E. coli FKBP22) [2])	Kd (rFKBP22 (E. coli FKBP22) [3])	Kd (rFKBP22 (E. coli FKBP22) [4])	stoichiometry N (cross-linking)
CO[C@H]1C[C@@H]2CC[C@@H](C)[C@@](O)(O2)C(=O)C(=O)N2CCCC[C@H]2C(=O)O[C@H]([C@H](C)C[C@@H]2CC[C@@H](O)[C@H](OC)C2)CC(=O)[C@H](C)/C=C(\C)[C@@H](O)[C@@H](OC)C(=O)[C@H](C)C[C@H](C)/C=C/C=C/C=C/1C [rapamycin]	5.06 ± 0.38 µM	5.51 ± 0.26 µM	5.43 ± 0.57 µM	5.41 ± 0.31 µM	
V72P, a rFKBP22 variant with a Val to Pro substitution at position 72 in the helix α3 (enzyme, Escherichia coli, UniProt P0A9L3 1-206, looked up) MTTPTFDTIEAQASYGIGLQVGQQLSESGLEGLLPEALVAGIADALEGKHPAVPVDVVHRALREIHERADAPRRQRFQAMAAEGVKYLEENAKKEGVNSTESGLQFRVINQGEGAIPARTDRVRVHYTGKLIDGTVFDSSVARGEPAEFPVNGVIPGWIEALTLMPVGSKWELTIPQELAYGERGAGASIPPFSTLVFEVELLEIL					2
A82P, a rFKBP22 derivative harboring an Ala to Pro change at position 82 in the helix α3 (enzyme, Escherichia coli, UniProt P0A9L3 1-206, looked up) MTTPTFDTIEAQASYGIGLQVGQQLSESGLEGLLPEALVAGIADALEGKHPAVPVDVVHRALREIHERADAVRRQRFQAMAPEGVKYLEENAKKEGVNSTESGLQFRVINQGEGAIPARTDRVRVHYTGKLIDGTVFDSSVARGEPAEFPVNGVIPGWIEALTLMPVGSKWELTIPQELAYGERGAGASIPPFSTLVFEVELLEIL					2
